Paper PMC4299541 (Cardiovascular Diabetology, 2015)

Assays:
[1] = target: T1, RAGE (receptor for AGEs), vRAGE (Homo sapiens, UniProt Q15109); test: 27-MHz quartz crystal microbalance, vRAGE immobilized; format: binding
T1 construct: gene AGER

[2] = tested on: GLAP-aptamer (DNA, aptamer, phosphorothioate linkage at each three bases (exact positions drawn in Figure 1C)) GCGGGTTGGGAGCCACTAGTAGCAACGTGCGACCCTCTACGAAGCAAACCATCCTCA; test: quartz crystal microbalance (27 MHz), curve fitting; conditions: immobilised compound; not affected by 2% fetal bovine serum
[3] = tested on: AGE-aptamer (DNA, aptamer, phosphorothioate linkages (positions drawn in Figure 3A)) TGTAGCCCGAGTATCATTCTCCATCGCCCCCAGATACAAG; test: as above; conditions: aptamer immobilised, GLAP added; not affected by 2% fetal bovine serum
[4] = tested on: Control-aptamer (DNA, single strand, phosphorothioate linkages (positions as in ref 24)) TTCGGCCTGGGGGCGGCCAGTTCGGGTCCAGTCGCGGGAG; test: quartz crystal microbalance (27 MHz); conditions: immobilised compound; highest concentration not stated

T1 sequence (Q15109 23-116 limits assumed): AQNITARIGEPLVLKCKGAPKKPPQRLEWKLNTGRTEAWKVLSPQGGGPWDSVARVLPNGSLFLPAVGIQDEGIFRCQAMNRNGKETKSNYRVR

Compound	Kd [1]	KD [2]	KD [3]	binding [4]
GLAP	59 µM	–	–	–
CC(=O)NC(CCCC[n+]1cc(O)cc(CO)c1)C(=O)O (racemic)	–	2.6 µM	33 µM	no
